In EPA's ToxRefDB 2:

Experiments:
rat [1] = conditions: Subchronic oral toxicity in rodents, wistar, Feed, dose end: 6 month, group: systemic
mouse [2] = conditions: Prenatal developmental toxicity study, cd1, Oral, Gavage/Intubation, dose end: 16 GD
mouse [3] = conditions: Combined chronic toxicity/carcinogenicity; other; Oral; Feed; dose end: 101 week; group: systemic; systemic / pathology microscopic / liver / enlarged vacuoles + systemic / pathology microscopic / liver / focal cellular change + systemic…
dog = conditions: Chronic toxicity, beagle, Oral, Capsule, dose end: 52 week, group: systemic
rat [4] = conditions: Multigenerational reproductive toxicity study, wistar, Oral, Feed, dose end: 2 generation
rat [5] = conditions: Subchronic oral toxicity in rodents, wistar, Feed, dose end: 3 month, group: systemic
rat [6] = conditions: Peri- and post-natal toxicity study (Segment III), wistar, Oral, [Not Specified], dose end: 21 PND
mouse [7] = conditions: Prenatal developmental toxicity study, cd1, Oral, Gavage/Intubation, dose end: 16 GD, group: maternal
rat [8] = conditions: Combined chronic toxicity/carcinogenicity, other, Oral, Feed, dose end: 104 week, group: systemic
mouse [9] = conditions: Subchronic oral toxicity in rodents, Feed, dose end: 90 day, group: systemic, systemic / pathology microscopic / liver / clear cell focus + systemic / pathology microscopic / liver / [other] + systemic / clinical …
rat [10] = conditions: Prenatal developmental toxicity study, sprague dawley, Injection, Subcutaneous, dose end: 8 GD
rat [11] = conditions: Prenatal developmental toxicity study; wistar; Oral; Gavage/Intubation; dose end: 15 GD; group: developmental; developmental / developmental malformation / bone / incomplete ossification + developmental / developmental malformation / bone / …
rabbit = conditions: Prenatal developmental toxicity study, new zealand white, Dermal, Topical, dose end: 19 GD
rat [12] = conditions: Subchronic oral toxicity in rodents, sprague dawley, Gavage/Intubation, dose end: 12 week, group: systemic, systemic / clinical chemistry / alkaline phosphatase (alp/alk) / alkaline phosphatase (alp/alk) + systemic / clinical chemistry / albumin / …
rat [13] = conditions: Subchronic oral toxicity in rodents, sprague dawley, Gavage/Intubation, dose end: 13 week, group: systemic
rat [14] = conditions: Developmental neurotoxicity study, sprague dawley, Oral, Gavage/Intubation, dose end: 97 PND, group: cannot be grouped
rat [15] = conditions: Developmental neurotoxicity study; sprague dawley; Oral; Gavage/Intubation; dose end: 90 PND; group: cannot be grouped; developmental / developmental landmark / eye opening / eye opening + reproductive / offspring survival early / dead fetuses / dead fetuses…
rat [16] = conditions: Prenatal developmental toxicity study, wistar, Dermal, Topical, dose end: 16 GD
mouse [17] = conditions: Sub-acute repeat dose toxicity, other, Oral, Gavage/Intubation, dose end: 21 day, group: systemic
[18] = systemic / clinical chemistry / glucose / glucose
[19] = systemic / clinical chemistry / glucose / glucose + systemic / clinical chemistry / lactic acid dehydrogenase (ldh) / lactic acid …
[20] = group: developmental, developmental / developmental malformation / bone / supernumerary
[21] = group: developmental, developmental / developmental malformation / bone / supernumerary + developmental / developmental malformation / bone / [other] + …
[22] = group: maternal, reproductive / reproductive performance / estrous cycle / corpora lutea
[23] = systemic / clinical chemistry / alkaline phosphatase (alp/alk) / alkaline phosphatase (alp/alk) + systemic / in life observation / body …
[24] = group: offspring, developmental / offspring survival late / viability index / viability index + developmental / offspring survival late / lactation index / …
[25] = group: offspring, developmental / offspring survival late / viability index / viability index + reproductive / offspring survival early / dead fetuses / dead …
[26] = group: parental, systemic / in life observation / body weight / body weight gain
[27] = group: parental, systemic / in life observation / body weight / body weight gain + systemic / in life observation / body weight / body weight + systemic / …
[28] = group: reproductive, reproductive / reproductive performance / gestational length / gestational length + reproductive / reproductive performance / dystocia / …
[29] = systemic / organ weight / adrenal gland / absolute + systemic / organ weight / adrenal gland / relative to body weight + systemic / …
[30] = group: developmental, developmental / offspring survival late / viability index / viability index
[31] = group: maternal, reproductive / offspring survival early / dead fetuses / dead fetuses + reproductive / offspring survival early / litter size / litter size
[32] = group: parental, systemic / in life observation / food consumption / food consumption + systemic / in life observation / mortality / mortality
[33] = systemic / in life observation / body weight / body weight gain + systemic / in life observation / body weight / dam weight + systemic / in …
[34] = systemic / pathology microscopic / thyroid gland / neoplasm nos + systemic / in life observation / body weight / body weight + systemic / in…
[35] = group: developmental, developmental / developmental malformation / general / crown-rump length + systemic / in life observation / body weight / fetal weight
[36] = group: maternal, reproductive / reproductive performance / resorptions / resorptions + systemic / in life observation / body weight / body weight + systemic…
[37] = group: developmental, systemic / in life observation / body weight / fetal weight
[38] = group: maternal, systemic / in life observation / body weight / body weight + systemic / in life observation / body weight / body weight gain + systemic / in…
[39] = systemic / clinical chemistry / alkaline phosphatase (alp/alk) / alkaline phosphatase (alp/alk) + systemic / hematology / erythrocyte (rbc) …
[40] = systemic / in life observation / body weight / offspring (pup) weight gain
[41] = group: developmental, developmental / developmental malformation / bone / supernumerary + systemic / in life observation / body weight / fetal weight
[42] = group: maternal, systemic / in life observation / clinical signs / [other] + systemic / in life observation / clinical signs / erythema + systemic / in life …
[43] = systemic / clinical chemistry / alkaline phosphatase (alp/alk) / alkaline phosphatase (alp/alk) + systemic / pathology microscopic / bone / …
[44] = systemic / hematology / hematocrit (hct) / hematocrit (hct) + systemic / hematology / hemoglobin (hgb) / hemoglobin (hgb)

C=CCOC(Cn1ccnc1)c1ccc(Cl)cc1Cl (stereo unspecified) [Imazalil]
LEL (rat [1]; [18]): 1.25 mg/kg/day
NEL (rat [1]; [18]): < 1.25 mg/kg/day
LOAEL (rat [1]; [19]): 20 mg/kg/day
NOAEL (rat [1]; [19]): 5 mg/kg/day
LEL (mouse [2]; [20]): 80 mg/kg/day
LOAEL (mouse [2]; [20]): 80 mg/kg/day
NEL (mouse [2]; [21]): 40 mg/kg/day
NOAEL (mouse [2]; [21]): 40 mg/kg/day
LEL (mouse [2]; [22]): 10 mg/kg/day
NEL (mouse [2]; [22]): < 10 mg/kg/day
LOAEL (mouse [2]; group: maternal, systemic / in life observation / body weight / body weight gain + systemic / in life observation / food consumption / food consumption): 40 mg/kg/day
NOAEL (mouse [2]; group: maternal, systemic / in life observation / body weight / body weight gain + systemic / in life observation / food consumption / food consumption + …): 10 mg/kg/day
LEL (mouse [3]): 28 mg/kg/day
LOAEL (mouse [3]): 28 mg/kg/day
NEL (mouse [3]): 6.67 mg/kg/day
NOAEL (mouse [3]): 6.67 mg/kg/day
LOAEL (dog; [23]): 20 mg/kg/day
NEL (dog; [23]): 1.25 mg/kg/day
NOAEL (dog; [23]): 2.5 mg/kg/day
LEL (dog; systemic / organ weight / liver / absolute + systemic / organ weight / liver / relative to body weight): 2.5 mg/kg/day
LEL (rat [4]; [24]): 5 mg/kg/day
NEL (rat [4]; [24]): < 5 mg/kg/day
LOAEL (rat [4]; [25]): 80 mg/kg/day
NOAEL (rat [4]; [25]): 20 mg/kg/day
NEL (rat [4]; [26]): 20 mg/kg/day
NOAEL (rat [4]; [26]): 20 mg/kg/day
LEL (rat [4]; [27]): 80 mg/kg/day
LOAEL (rat [4]; [27]): 80 mg/kg/day
LOAEL (rat [4]; group: reproductive, reproductive / reproductive performance / gestational length / gestational length): 80 mg/kg/day
LEL (rat [4]; [28]): 80 mg/kg/day
NEL (rat [4]; [28]): 20 mg/kg/day
NOAEL (rat [4]; [28]): 20 mg/kg/day
LOAEL (rat [5]; [29]): 37.9 mg/kg/day
NOAEL (rat [5]; [29]): 18.7 mg/kg/day
NEL (rat [5]; systemic / organ weight / liver / absolute + systemic / organ weight / adrenal gland / absolute + systemic / organ weight / adrenal gland / …): 90.1 mg/kg/day
LEL (rat [6]; [30]): 80 mg/kg/day
LOAEL (rat [6]; [30]): > 80 mg/kg/day
NEL (rat [6]; [30]): 20 mg/kg/day
NOAEL (rat [6]; [30]): ≥ 80 mg/kg/day
LEL (rat [6]; [31]): 80 mg/kg/day
LOAEL (rat [6]; [31]): > 80 mg/kg/day
NEL (rat [6]; [31]): 20 mg/kg/day
NOAEL (rat [6]; [31]): ≥ 80 mg/kg/day
LEL (rat [6]; [32]): 80 mg/kg/day
LOAEL (rat [6]; [32]): > 80 mg/kg/day
NEL (rat [6]; [32]): 20 mg/kg/day
NOAEL (rat [6]; [32]): ≥ 80 mg/kg/day
LOAEL (mouse [7]; systemic / in life observation / body weight / body weight gain): 80 mg/kg/day
LEL (mouse [7]; [33]): 80 mg/kg/day
NEL (mouse [7]; [33]): 40 mg/kg/day
NOAEL (mouse [7]; [33]): 40 mg/kg/day
LEL (rat [8]; systemic / pathology microscopic / liver / pigmentation): 14.6 mg/kg/day
NEL (rat [8]; systemic / pathology microscopic / liver / pigmentation + systemic / clinical chemistry / alanine aminotransferase (alt/sgpt) / alanine …): 3.6 mg/kg/day
LOAEL (rat [8]; [34]): 65.8 mg/kg/day
NOAEL (rat [8]; [34]): 10.8 mg/kg/day
LEL (mouse [9]): 38.6 mg/kg/day
LOAEL (mouse [9]): 38.6 mg/kg/day
NEL (mouse [9]): 9.5 mg/kg/day
NOAEL (mouse [9]): 9.5 mg/kg/day

CC1=C(/C=C/C(C)=C/C=C/C(C)=C/C(=O)O)C(C)(C)CCC1 [trans-Retinoic acid]
LEL (rat [10]; [35]): 48.1 mg/kg/day
LOAEL (rat [10]; [35]): > 144 mg/kg/day
NEL (rat [10]; [35]): 24 mg/kg/day
NOAEL (rat [10]; [35]): ≥ 144 mg/kg/day
LOAEL (rat [10]; [36]): > 144 mg/kg/day
NEL (rat [10]; [36]): 48.1 mg/kg/day
NOAEL (rat [10]; [36]): ≥ 144 mg/kg/day
LEL (rat [10]; group: maternal, systemic / in life observation / body weight / body weight + systemic / in life observation / clinical signs / abnormal gait + systemic / in…): 96.1 mg/kg/day
LEL (rat [11]): 5 mg/kg/day
LOAEL (rat [11]): > 10 mg/kg/day
NEL (rat [11]): 2.5 mg/kg/day
NOAEL (rat [11]): ≥ 10 mg/kg/day
LEL (rabbit; [37]): 0.5 mg/kg/day
LOAEL (rabbit; [37]): > 0.5 mg/kg/day
NEL (rabbit; [37]): 0.05 mg/kg/day
NOAEL (rabbit; [37]): ≥ 0.5 mg/kg/day
LEL (rabbit; [38]): 0.05 mg/kg/day
LOAEL (rabbit; [38]): > 0.5 mg/kg/day
NEL (rabbit; [38]): < 0.05 mg/kg/day
NOAEL (rabbit; [38]): ≥ 0.5 mg/kg/day
LEL (rat [12]): 0.5 mg/kg/day
LOAEL (rat [12]): > 5 mg/kg/day
NEL (rat [12]): < 0.5 mg/kg/day
NOAEL (rat [12]): ≥ 5 mg/kg/day
LOAEL (rat [13]; [39]): > 50 mg/kg/day
NEL (rat [13]; [39]): 1 mg/kg/day
NOAEL (rat [13]; [39]): ≥ 50 mg/kg/day
LEL (rat [13]; systemic / clinical chemistry / alkaline phosphatase (alp/alk) / alkaline phosphatase (alp/alk) + systemic / pathology microscopic / lymph …): 4 mg/kg/day
LOAEL (rat [14]; [40]): > 6 mg/kg/day
NOAEL (rat [14]; [40]): ≥ 6 mg/kg/day
LEL (rat [14]; systemic / in life observation / clinical signs / impaired foot spread): 2.5 mg/kg/day
LEL (rat [15]): 2.5 mg/kg/day
LOAEL (rat [15]): > 2.5 mg/kg/day
NEL (rat [15]): < 2.5 mg/kg/day
NOAEL (rat [15]): ≥ 2.5 mg/kg/day
LEL (rat [16]; [20]): 2.5 mg/kg/day
LOAEL (rat [16]; [41]): > 20 mg/kg/day
NEL (rat [16]; [41]): 1 mg/kg/day
NOAEL (rat [16]; [41]): ≥ 20 mg/kg/day
LOAEL (rat [16]; [38]): > 20 mg/kg/day
NOAEL (rat [16]; [38]): ≥ 20 mg/kg/day
LEL (rat [16]; [42]): 1 mg/kg/day
NEL (rat [16]; [42]): < 1 mg/kg/day
LOAEL (mouse [17]; [43]): > 100 mg/kg/day
NOAEL (mouse [17]; [43]): ≥ 100 mg/kg/day
LEL (mouse [17]; [44]): 3 mg/kg/day
NEL (mouse [17]; [44]): < 3 mg/kg/day
